{
  "source": "patent US6271369A",
  "about": "“Chimeric molecules targeted to viral RNAs” (priority 1997, dated 2001)",
  "key": {"[1]": {"tested_on": "2-5A-dependent RNase", "test": "Radiobinding (nitrocellulose filter) competition assay for 2-5A-dependent RNase in mouse liver extract", "assay_type": "binding", "protocol": "SEQ ID NO:1, SEQ ID NO:2, Chimeric Molecule 3, and Chimeric Molecule 4 were tested for their ability to bind to 2-5A-dependent RNase in vitro. The affinity of these 2-5A:AS constructs for 2-5A-dependent RNase was established with a highly specific radiobinding assay. This radiobinding assay measured the ability of 2-5A or 2-5A analogs to compete with a ^32 P-labeled 2-5A probe, ppp5'A2'p5'A2'p5'A2'p5'A3'-[^32 p]p5'C3'p, for binding to 2-5A-dependent RNase. The nitrocellulose filter binding assay of Knight et al. (Methods Enzymol. , 79: 216 (1981)) was used to measure the concentrations of 2-5A or the chimeric 2-5A:AS molecule required to compete with the radiolabeled probe, ppp5'A2'-p5'A2'p5'A2'p5A3'[^32 P]p5C3'p, for binding to 2-5A-dependentRNase in a mouse liver extract.\nFIGS. 3A and 3B show the relative affinities of SEQ ID NO:1 (.tangle-solidup.) and 2-5A (ppp5'A2'p5'A2'p5'A) (.circle-solid.) for 2-5A-dependent RNase. A measure of 100% binding was found in the absence of any unlabeled oligonucleotide. The data for SEQ ID NO:1 and 2-5A in these figures represent the means and standard deviations from 6 and 7 assays, respectively."}, "[2]": {"tested_on": "poly(A)", "test": "UV absorbance-temperature profile (melting) of complex with poly(A)", "assay_type": "physicochemical", "details": "40 mM KH2PO4 pH 7.0", "protocol": "We also compared the melting temperature of poly (A) with the melting temperature of SEQ ID NO:1 (FIG. 4). For this experiment, 1000 μL of 3.2×10^-6 M poly(A) in KH2 PO4 buffer (pH 7.0, 40 mM) was mixed with 1000 μL of 2.9 ×10^-6 M SEQ ID NO:1 in KH2 PO4 buffer, and the resulting mixture was incubated at 4° overnight before determination of melting temperature. At/Ai refers to the ratio of absorbance (At) at a given temperature compared to the absorbance (Ai) at the initial temperature (25-30° ). No -attempt was made to determine complex stoichiometry (2- or 3-stranded). Under similar conditions, an equimolar mixture of poly(A) and oligo(dT)20 gave a complex with a Tm of 40° (data not shown).\nThe effect of the 2-5A moiety of SEQ ID NO:1 on the ability of the dT18 region to anneal with its complementary poly (A) sequence as determined from UV absorbance-temperature profiles is shown in FIG. 4."}, "[3]": {"tested_on": "TAR:vif RNA", "test": "Cleavage of control TAR:vif RNA (no oligo(rA) tract) in Daudi cell extract", "assay_type": "biochemical, HIV-1", "details": "0.2 or 1.0 μM", "excerpt": "To determine the ability of the 2-5A:AS chimeric molecule SEQ ID NO:1 to induce site-directed RNA cleavage, a target RNA was constructed having an internal 3',5'-oligo(rA) tract. Hybridization between the (dT18) in SEQ ID NO:1 with the oligo(rA) in the target RNA attracts 2-5A-dependent RNase to the target RNA, resulting in a highly specific cleavage event. The experimental target, TAR:A25 :vif RNA, was produced in vitro from a pSP64-derived plasmid containing a partial cDNA for the HIV vif protein interrupted with 25 adenylyl residues. A control TAR:vif RNA was constructed with the A25 tract deleted. These RNA species, which lack 3'-poly(rA) tails, were radiolabeled at their 3'-termini with [5'-^32 p)-pCp by T4 RNA ligase and gel purified prior to the assay. […]\nDaudi cell extracts prepared with dounce homogenization were made by the well known method of Wreschner, et al. in a buffer containing 40mM KCl; 10 mM HEPES pH 7.5; 2.5mM magnesium acetate; 0.5mM ATP; 2.5% glycerol and 2.0mM mercaptoethanol. […] Cleavage products were analyzed in 6% polyacrylamide/8M urea gels (30×40×0.04cm).\nThis property of the 2-5A:AS molecule was determined by experiments employing unmodified 2-5A. […]"}, "[4]": {"tested_on": "TAR:A25 :vif RNA", "test": "Primer-extension analysis of TAR:A25:vif RNA cleavage products", "assay_type": "biochemical, HIV-1", "protocol": "To determine the exact sites of cleavage of the TAR:A25 :vif RNA induced by SEQ ID NO:1, a primer-extension DNA synthesis reaction was performed on the RNA cleavage products with reverse transcriptase.\nA primer extension assay was used as described by Driscoll, et al. (Cell, 58:519 (1989)) except that all four dNTPs were included. DNA sequencing of plasmid pSP6/TAR:A25 :vif was with the same primer using Sequenase version 2.0 (United States Biochemical) and ^35 S-dATP. The sequence of the primer was 5'-[…]-3'(SEQ ID NO:3). Results were reproduced from two separate sets of RNA cleavage reactions.\nThe cleavage sites of the RNA subjected to the RNA cleavage reactions described above were determined by comparing the migration of the primer extension products and DNA sequencing products performed with the same primer annealed to the plasmid containing the TAR:A25 :vif sequence. […] Previous reports indicate that unmodified 2-sA stimulates 2-5A-dependent RNase to cleave RNA on the 3'-side of UN sequences, where N stands for any nucleotide."}},
  "data": [
    {"substance": "p5'A2'(p5'A2')2 P5'A2'p1[OCH2 (CH2)2 CH2 O]4p1[OCH2 (CH2)2 CH2 O]4p5'pdT3'(p5'dt3')16 p5'dt (AAAATTTTTTTTTTTTTTTTTT; chemistry not fully specified) [SEQ ID NO:1]", "values": [
      {"measurement": "IC50 / ability to bind 2-5A-dependent RNase compared with unmodified 2-5A", "setting": "[1]; compared with ppp5'A2'p5'A2'p5'A, FIG. 3A", "value": "very little, if any, decrease in the IC50"},
      {"measurement": "binding affinity to 2-5A-dependent RNase when annealed to complementary sequence", "setting": "[1]; mixed with excess poly(A), FIG. 3B", "value": "no significant change in the binding affinity"},
      {"measurement": "melting temperature (Tm) of complex with poly(A)", "setting": "[2]", "value": "approximately 38 °C"},
      {"measurement": "hypochromicity on mixing with poly(A)", "setting": "[2]; 3.2×10^-6 M poly(A) + 2.9×10^-6 M", "value": 17, "unit": "%"},
      {"measurement": "specific cleavage in TAR:vif RNA lacking the oligo(rA) tract", "setting": "[3]", "value": "failed to yield a specific cleavage"},
      {"measurement": "specific cleavage products / cleavage sites by primer extension", "setting": "[4]", "value": "induced multiple cleavages within the oligo(rA) tract"},
      {"measurement": "levels of intact RNA (full-length primer extension products)", "setting": "[4]; after incubation in cell-free system", "value": "greatly reduced"}
    ]}
  ]
}
